Test results as given in patent publication US11529361B2, “Halogenated salicylanilides for treating Clostridium infections” (UNION therapeutics A/S, priority 2015, dated 2022).
≈ marks a conversion by molar mass, not a printed value. Read-outs that look alike come from different tables or passages of the source.

Assays:
[1] = system: C. difficile clinical isolates; experiment: MIC determination by microbroth dilution per CLSI guideline (Example 1); assay type: cell-based, Clostridium difficile; conditions: Clostridioides difficile
[2] = system: mice; conditions: p.o.; cited from earlier work
[3] = system: cats; conditions: p.o.; cited from earlier work
[4] = cited from earlier work
[5] = via the urinary tract or by enzymatic metabolism in the liver; cited from earlier work
[6] = system: 24 clinical isolate strains of C. difficile; experiment: Additional MIC determinations, antibacterial activity by OD600 (Example 3); assay type: cell-based, Clostridium difficile
[7] = system: rats; conditions: p.o., cited from earlier work
[8] = system: Clostridium difficile 7-6011209; assay type: cell-based
[9] = read-out: C. difficile Strain 7-6011209 MIC
[10] = read-out: C. difficile Strain 12055 MIC

In the case of O=C(Nc1ccc([N+](=O)[O-])cc1Cl)c1cc(Cl)ccc1O [Niclosamide, 2′,5-dichloro-4′-nitrosalicylanilide], the MIC ([1]; isolate 7-5085357, read-out: MIC of clinical isolates of C. difficile) is reported as 0.125 µg/mL, the MIC ([1]; isolate 7-5779928, read-out: MIC of clinical isolates of C. difficile) is reported as 0.25 µg/mL and the MIC ([1]; isolate 7-6008526, read-out: MIC of clinical isolates of C. difficile) is reported as 0.25 µg/mL. The MIC ([1]; isolate 7-6011209, read-out: MIC of clinical isolates of C. difficile) was 0.06 µg/mL, the MIC ([1]; isolate 7-6778909, read-out: MIC of clinical isolates of C. difficile) was 0.25 µg/mL and the MIC ([1]; isolate 7-6854508, read-out: MIC of clinical isolates of C. difficile) was 0.125 µg/mL. For the same compound, the MIC ([1]; isolate 7-6870430, read-out: MIC of clinical isolates of C. difficile) was 0.25 µg/mL, the MIC ([1]; isolate 7-7104022, read-out: MIC of clinical isolates of C. difficile) was 0.125 µg/mL and the MIC ([1]; isolate 7-7116411, read-out: MIC of clinical isolates of C. difficile) was 0.125 µg/mL. It also gave an MIC ([1]; isolate 7-7124449, read-out: MIC of clinical isolates of C. difficile) of 0.125 µg/mL, an MIC ([1]; isolate 7-7149204, read-out: MIC of clinical isolates of C. difficile) of 0.125 µg/mL and an MIC ([1]; isolate 7-7150288, read-out: MIC of clinical isolates of C. difficile) of 0.125 µg/mL. For the same compound, the MIC ([1]; isolate 7-7150318, read-out: MIC of clinical isolates of C. difficile) was 0.125 µg/mL, the MIC ([1]; isolate 7-7150628, read-out: MIC of clinical isolates of C. difficile) was 0.125 µg/mL and the MIC ([1]; isolate 7-7150997, read-out: MIC of clinical isolates of C. difficile) was 0.125 µg/mL. For the same compound, the MIC ([1]; isolate 7-7151551, read-out: MIC of clinical isolates of C. difficile) was 0.25 µg/mL, the MIC ([1]; isolate 7-7152701, read-out: MIC of clinical isolates of C. difficile) was 0.25 µg/mL and the MIC ([1]; isolate 7-7153872, read-out: MIC of clinical isolates of C. difficile) was 0.5 µg/mL. The MIC ([1]; isolate 7-7154712 (listed twice), read-out: MIC of clinical isolates of C. difficile) was 0.25 µg/mL, the MIC ([1]; isolate 7-7154992, read-out: MIC of clinical isolates of C. difficile) was 0.25 µg/mL and the MIC ([1]; isolate 7-7156197, read-out: MIC of clinical isolates of C. difficile) was 0.25 µg/mL. It also gave an MIC ([1]; isolate 7-7200552, read-out: MIC of clinical isolates of C. difficile) of 0.25 µg/mL, an MIC ([1]; isolate 7-7363761, read-out: MIC of clinical isolates of C. difficile) of 0.125 µg/mL and an MIC ([1]; isolate 12055, read-out: MIC of clinical isolates of C. difficile) of 0.125 µg/mL. For the same compound, the MIC ([1]; isolate 12060, read-out: MIC of clinical isolates of C. difficile) was 0.125 µg/mL, the MIC ([1]; isolate 12061, read-out: MIC of clinical isolates of C. difficile) was 0.06 µg/mL and the MIC ([1]; isolate 12062, read-out: MIC of clinical isolates of C. difficile) was 0.06 µg/mL. The MIC ([1]; isolate 12063, read-out: MIC of clinical isolates of C. difficile) was 0.06 µg/mL, the MIC ([1]; isolate 12064, read-out: MIC of clinical isolates of C. difficile) was 0.06 µg/mL and the MIC ([1]; niclosamide, matches Table 2, read-out: Highest MIC observed) was 0.5 µg/mL (≈ 1.53 µM). The MIC90 ([1]; footnote b: data from tables herein) was 0.06 to 0.25 µg/mL (≈ 0.183 to 0.764 µM), the LD50 [2] was > 5000 mg/kg and the LD50 [3] was > 1000 mg/kg. The solubility in water [4] was “poorly soluble in water” and the “clearance from the bloodstream” value [5] was “quickly cleared”.

O=C(Nc1cc(Cl)cc(Cl)c1O)c1c(O)c(Cl)cc(Cl)c1Cl [Oxyclozanide] gave an MIC ([1]; Table 3, strain 7-6011209, read-out: C. difficile Strain 7-6011209 MIC) of 0.25 µg/mL (≈ 0.623 µM), an MIC ([1]; Table 3, strain 12055, read-out: C. difficile Strain 12055 MIC) of 0.25 µg/mL (≈ 0.623 µM) and an MIC ([6]; strain 7-5085357 (ST028)) of 0.016 µg/mL (≈ 0.0399 µM). The MIC ([6]; strain 7-6011209 (ST002)) was < 0.008 µg/mL, the MIC ([6]; strain 7-6778909 (ST016)) was < 0.008 µg/mL and the MIC ([6]; strain 7-6854508 (ST013)) was < 0.008 µg/mL. The MIC ([6]; strain 7-6870430 (ST001)) was < 0.008 µg/mL, the MIC ([6]; strain 7-7104022 (ST103)) was < 0.008 µg/mL and the MIC ([6]; strain 7-7116411 (ST005)) was 0.125 µg/mL (≈ 0.311 µM). For the same compound, the MIC ([6]; strain 7-7124449 (ST009)) was 0.031 µg/mL (≈ 0.0772 µM), the MIC ([6]; strain 7-7149204 (ST006)) was < 0.008 µg/mL and the MIC ([6]; strain 7-7150288 (ST003)) was < 0.008 µg/mL. The MIC ([6]; strain 7-7150318 (ST059)) was 0.016 µg/mL (≈ 0.0399 µM), the MIC ([6]; strain 7-7150628 (ST034)) was 0.31 µg/mL (≈ 0.772 µM) and the MIC ([6]; strain 7-7150997 (ST049)) was < 0.008 µg/mL. The MIC ([6]; strain 7-7154992 (ST139)) was < 0.008 µg/mL, the MIC ([6]; strain 7-7200552 (ST017)) was 0.25 µg/mL (≈ 0.623 µM) and the MIC ([6]; strain 12055) was 0.016 µg/mL (≈ 0.0399 µM). For the same compound, the MIC ([6]; strain 12060) was 0.031 µg/mL (≈ 0.0772 µM), the MIC ([6]; strain 12061) was 0.016 µg/mL (≈ 0.0399 µM) and the MIC ([6]; strain 12062) was < 0.008 µg/mL. For the same compound, the MIC ([6]; strain 12063) was 0.016 µg/mL (≈ 0.0399 µM), the MIC ([6]; strain 12064) was < 0.008 µg/mL and the MIC ([6]; strain 12065) was 0.031 µg/mL (≈ 0.0772 µM). For the same compound, the MIC ([6]; strain 12066) was 0.125 µg/mL (≈ 0.311 µM) and the LD50 [7] was 980 to 3519 mg/kg.

For O=C(Nc1ccc(Oc2ccc(Cl)cc2)c(Cl)c1)c1cc(I)cc(I)c1O [Rafoxanide], the MIC [1, 9] was < 0.08 µg/mL, the MIC [1, 10] was < 0.08 µg/mL and the MIC ([6]; strain 7-5085357 (ST028)) was 0.016 µg/mL (≈ 0.0256 µM). The MIC ([6]; strain 7-6011209 (ST002)) was < 0.008 µg/mL, the MIC ([6]; strain 7-6778909 (ST016)) was < 0.008 µg/mL and the MIC ([6]; strain 7-6854508 (ST013)) was < 0.008 µg/mL. The MIC ([6]; strain 7-6870430 (ST001)) was < 0.008 µg/mL, the MIC ([6]; strain 7-7104022 (ST103)) was < 0.008 µg/mL and the MIC ([6]; strain 7-7116411 (ST005)) was 0.031 µg/mL (≈ 0.0495 µM). The MIC ([6]; strain 7-7124449 (ST009)) was 0.031 µg/mL (≈ 0.0495 µM), the MIC ([6]; strain 7-7149204 (ST006)) was < 0.008 µg/mL and the MIC ([6]; strain 7-7150288 (ST003)) was < 0.008 µg/mL. For the same compound, the MIC ([6]; strain 7-7150318 (ST059)) was < 0.008 µg/mL, the MIC ([6]; strain 7-7150628 (ST034)) was 0.31 µg/mL (≈ 0.495 µM) and the MIC ([6]; strain 7-7150997 (ST049)) was < 0.008 µg/mL. The MIC ([6]; strain 7-7154992 (ST139)) was 0.016 µg/mL (≈ 0.0256 µM), the MIC ([6]; strain 7-7200552 (ST017)) was 0.063 µg/mL (≈ 0.101 µM) and the MIC ([6]; strain 12055) was < 0.008 µg/mL. The MIC ([6]; strain 12060) was 0.031 µg/mL (≈ 0.0495 µM), the MIC ([6]; strain 12061) was 0.016 µg/mL (≈ 0.0256 µM) and the MIC ([6]; strain 12062) was 0.016 µg/mL (≈ 0.0256 µM). For the same compound, the MIC ([6]; strain 12063) was < 0.008 µg/mL, the MIC ([6]; strain 12064) was < 0.008 µg/mL and the MIC ([6]; strain 12065) was 0.016 µg/mL (≈ 0.0256 µM). The MIC ([6]; strain 12066) was 0.063 µg/mL (≈ 0.101 µM), the “formation of heat-resistant spores over time” value [8] was “suppressed formation of spores throughout the 96 hour study period” and the LD50 [2] was 232 to 300 mg/kg. The “LD50, median” value ([7]; median over studies) was > 1490 mg/kg.

Compound O=C(Nc1ccc(Br)cc1)c1cc(Br)cc(Br)c1O [Tribromsalan, 3,4′,5-tribromosalicylanilide] has an MIC [1, 9] of 0.125 µg/mL (≈ 0.278 µM), an MIC [1, 10] of 0.25 µg/mL (≈ 0.556 µM) and an MIC ([6]; strain 7-5085357 (ST028)) of 0.016 µg/mL (≈ 0.0356 µM). The MIC ([6]; strain 7-6011209 (ST002)) was < 0.008 µg/mL, the MIC ([6]; strain 7-6778909 (ST016)) was < 0.008 µg/mL and the MIC ([6]; strain 7-6854508 (ST013)) was 0.031 µg/mL (≈ 0.0689 µM). For the same compound, the MIC ([6]; strain 7-6870430 (ST001)) was 0.016 µg/mL (≈ 0.0356 µM), the MIC ([6]; strain 7-7104022 (ST103)) was 1 µg/mL (≈ 2.22 µM) and the MIC ([6]; strain 7-7116411 (ST005)) was < 0.008 µg/mL. The MIC ([6]; strain 7-7124449 (ST009)) was 0.063 µg/mL (≈ 0.14 µM), the MIC ([6]; strain 7-7149204 (ST006)) was < 0.008 µg/mL and the MIC ([6]; strain 7-7150288 (ST003)) was < 0.008 µg/mL. For the same compound, the MIC ([6]; strain 7-7150318 (ST059)) was < 0.008 µg/mL, the MIC ([6]; strain 7-7150628 (ST034)) was 0.031 µg/mL (≈ 0.0689 µM) and the MIC ([6]; strain 7-7150997 (ST049)) was 0.16 µg/mL (≈ 0.356 µM). It also gave an MIC ([6]; strain 7-7154992 (ST139)) of 0.063 µg/mL (≈ 0.14 µM), an MIC ([6]; strain 7-7200552 (ST017)) of 0.25 µg/mL (≈ 0.556 µM) and an MIC ([6]; strain 12055) of 0.016 µg/mL (≈ 0.0356 µM). The MIC ([6]; strain 12060) was 0.063 µg/mL (≈ 0.14 µM), the MIC ([6]; strain 12061) was 0.016 µg/mL (≈ 0.0356 µM) and the MIC ([6]; strain 12062) was < 0.008 µg/mL. The MIC ([6]; strain 12063) was 0.016 µg/mL (≈ 0.0356 µM), the MIC ([6]; strain 12064) was < 0.008 µg/mL and the MIC ([6]; strain 12065) was 0.016 µg/mL (≈ 0.0356 µM). For the same compound, the MIC ([6]; strain 12066) was 0.031 µg/mL (≈ 0.0689 µM).
